According to PubChem BioAssay (NCI):
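96-well plates; 48 h exposure; 5 concentrations. Endpoints by linear interpolation between flanking doses. Not reached: highest tested concentration assigned. GI50 marks 50% less growth. At the TGI there is no net growth.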

Assays:
Assay in all cases: NCI anticancer screen, dose series, 48 h
UACC-62 melanoma = system: UACC-62 melanoma
NCI-H23 lung = system: NCI-H23 lung
NCI-H460 lung = system: NCI-H460 lung
ACHN renal = system: ACHN renal
SNB-19 CNS = system: SNB-19 CNS
U251 CNS = system: U251 CNS
NCI-H226 lung = system: NCI-H226 lung
SN12C renal = system: SN12C renal
DU-145 prostate = system: DU-145 prostate
IGROV1 ovarian = system: IGROV1 ovarian

Structure (SMILES) | TGI (UACC-62 melanoma) | TGI (NCI-H23 lung) | TGI (NCI-H460 lung) | TGI (ACHN renal) | TGI (SNB-19 CNS) | TGI (U251 CNS) | TGI (NCI-H226 lung) | TGI (SN12C renal) | TGI (DU-145 prostate) | TGI (IGROV1 ovarian) | GI50 (UACC-62 melanoma) | GI50 (NCI-H23 lung) | GI50 (NCI-H460 lung) | GI50 (ACHN renal) | GI50 (SNB-19 CNS) | GI50 (U251 CNS) | GI50 (NCI-H226 lung) | GI50 (SN12C renal) | GI50 (DU-145 prostate) | GI50 (IGROV1 ovarian)
Cc1nc2ccc(NCCN(C)C)c3c(=O)c4cc(O)ccc4n1c23 | 5.63 µM | 2.05 µM | 1.39 µM | 1.94 µM | 7.06 µM | 11.7 µM | 1.7 µM | 4.93 µM | 4.93 µM | 9.46 µM | – | – | – | – | – | – | – | – | – | –
C=C1CO[C@@H]2C[C@@H]1CCC1(C)OC1CC/C(C)=C/CC[C@@]2(C)O (stereo not given in full) | > 71.2 µM | > 73 µM | 30.7 µM | 31.4 µM | > 100 µM | > 74.2 µM | > 100 µM | 67.8 µM | 31.2 µM | 32 µM | 28.2 µM | 27.8 µM | 13.9 µM | 16.7 µM | > 85.9 µM | 37.6 µM | > 100 µM | 25.6 µM | 16.1 µM | 16.3 µM
O=[N+]([O-])c1ccc2c(c1)S(=O)c1ccccc1-2 (stereo not given) | > 100 µM | > 100 µM | > 100 µM | > 100 µM | > 100 µM | > 100 µM | > 100 µM | > 100 µM | > 100 µM | > 100 µM | – | – | – | – | – | – | – | – | – | –
CCC(C)CC(CC)NCCN1CCN(C(CC)CC(C)CC)C1=S (stereo not given) | 3.05 µM | 3.5 µM | 4.1 µM | 3.14 µM | 3.87 µM | 2.88 µM | 4.02 µM | 7.83 µM | 4.71 µM | 4.53 µM | 1.65 µM | 1.74 µM | 2.5 µM | 1.76 µM | 1.73 µM | 1.55 µM | 1.85 µM | 2.55 µM | 2.17 µM | 2.23 µM
O=C(Nc1ccccc1F)c1ccc(NC2=C(Cl)C(=O)N(Cc3ccccc3)C2=O)cc1 | 15.9 µM | 25.7 µM | 19.3 µM | 28.4 µM | 23.8 µM | 26 µM | 25.2 µM | 7.93 µM | 4.34 µM | 2.94 µM | 4.39 µM | 13 µM | 6.6 µM | 15.1 µM | 11.6 µM | 13.3 µM | 11.2 µM | 1.98 µM | 2.11 µM | 1.16 µM
COC(=O)[C@]12CC[C@@H](C)[C@H](C)[C@@H]1C1=CC[C@@H]3[C@@]4(C)C=C(O)C(=O)C(C)=C4CC[C@@]3(C)[C@]1(C)CC2 | 31.3 µM | 27.8 µM | 37.3 µM | 19.3 µM | 40.9 µM | 33.6 µM | 41 µM | 50.4 µM | 33.3 µM | 36.5 µM | 14.5 µM | 11 µM | 18.9 µM | 5.4 µM | 18.7 µM | 16.9 µM | 12.3 µM | 19.2 µM | 15.2 µM | 13.4 µM
CC(C)(C)c1nnc2n(c1=O)N=CC(c1ccc(Br)cc1)S2 (stereo not given) | 32.7 µM | 46.8 µM | > 100 µM | 75.9 µM | > 100 µM | 66.9 µM | 51 µM | 57.2 µM | > 100 µM | 92.8 µM | 17.5 µM | 19.8 µM | 30.1 µM | 29.6 µM | 51.3 µM | 26 µM | 21.4 µM | 27.7 µM | 29.3 µM | 26.5 µM
